Reference: patent publication US20240246992A1, “MACROCYCLIC LRRK2 KINASE INHIBITORS” (LES LABORATOIRES SERVIER, priority 2021, published 2024)

Molecular target: human recombinant LRRK2 protein (Homo sapiens, UniProt Q5S007)
Experiment: LRRK2 kinase activity assay (ADP-Glo, LRRKtide peptide)
Format: biochemical
Conditions: human recombinant LRRK2 wt, LRRKtide peptide and ATP, 1 h at 37° C.
Procedure, shortened: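 ADP-Glo luminescence read-out of a peptide assay: compound, ATP and LRRKtide substrate combined with recombinant human LRRK2 and incubated at 37 °C for 1 h. Ten-point data, N=2, curve-fitted to IC50.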

Sequence of human recombinant LRRK2 protein (Q5S007 whole entry): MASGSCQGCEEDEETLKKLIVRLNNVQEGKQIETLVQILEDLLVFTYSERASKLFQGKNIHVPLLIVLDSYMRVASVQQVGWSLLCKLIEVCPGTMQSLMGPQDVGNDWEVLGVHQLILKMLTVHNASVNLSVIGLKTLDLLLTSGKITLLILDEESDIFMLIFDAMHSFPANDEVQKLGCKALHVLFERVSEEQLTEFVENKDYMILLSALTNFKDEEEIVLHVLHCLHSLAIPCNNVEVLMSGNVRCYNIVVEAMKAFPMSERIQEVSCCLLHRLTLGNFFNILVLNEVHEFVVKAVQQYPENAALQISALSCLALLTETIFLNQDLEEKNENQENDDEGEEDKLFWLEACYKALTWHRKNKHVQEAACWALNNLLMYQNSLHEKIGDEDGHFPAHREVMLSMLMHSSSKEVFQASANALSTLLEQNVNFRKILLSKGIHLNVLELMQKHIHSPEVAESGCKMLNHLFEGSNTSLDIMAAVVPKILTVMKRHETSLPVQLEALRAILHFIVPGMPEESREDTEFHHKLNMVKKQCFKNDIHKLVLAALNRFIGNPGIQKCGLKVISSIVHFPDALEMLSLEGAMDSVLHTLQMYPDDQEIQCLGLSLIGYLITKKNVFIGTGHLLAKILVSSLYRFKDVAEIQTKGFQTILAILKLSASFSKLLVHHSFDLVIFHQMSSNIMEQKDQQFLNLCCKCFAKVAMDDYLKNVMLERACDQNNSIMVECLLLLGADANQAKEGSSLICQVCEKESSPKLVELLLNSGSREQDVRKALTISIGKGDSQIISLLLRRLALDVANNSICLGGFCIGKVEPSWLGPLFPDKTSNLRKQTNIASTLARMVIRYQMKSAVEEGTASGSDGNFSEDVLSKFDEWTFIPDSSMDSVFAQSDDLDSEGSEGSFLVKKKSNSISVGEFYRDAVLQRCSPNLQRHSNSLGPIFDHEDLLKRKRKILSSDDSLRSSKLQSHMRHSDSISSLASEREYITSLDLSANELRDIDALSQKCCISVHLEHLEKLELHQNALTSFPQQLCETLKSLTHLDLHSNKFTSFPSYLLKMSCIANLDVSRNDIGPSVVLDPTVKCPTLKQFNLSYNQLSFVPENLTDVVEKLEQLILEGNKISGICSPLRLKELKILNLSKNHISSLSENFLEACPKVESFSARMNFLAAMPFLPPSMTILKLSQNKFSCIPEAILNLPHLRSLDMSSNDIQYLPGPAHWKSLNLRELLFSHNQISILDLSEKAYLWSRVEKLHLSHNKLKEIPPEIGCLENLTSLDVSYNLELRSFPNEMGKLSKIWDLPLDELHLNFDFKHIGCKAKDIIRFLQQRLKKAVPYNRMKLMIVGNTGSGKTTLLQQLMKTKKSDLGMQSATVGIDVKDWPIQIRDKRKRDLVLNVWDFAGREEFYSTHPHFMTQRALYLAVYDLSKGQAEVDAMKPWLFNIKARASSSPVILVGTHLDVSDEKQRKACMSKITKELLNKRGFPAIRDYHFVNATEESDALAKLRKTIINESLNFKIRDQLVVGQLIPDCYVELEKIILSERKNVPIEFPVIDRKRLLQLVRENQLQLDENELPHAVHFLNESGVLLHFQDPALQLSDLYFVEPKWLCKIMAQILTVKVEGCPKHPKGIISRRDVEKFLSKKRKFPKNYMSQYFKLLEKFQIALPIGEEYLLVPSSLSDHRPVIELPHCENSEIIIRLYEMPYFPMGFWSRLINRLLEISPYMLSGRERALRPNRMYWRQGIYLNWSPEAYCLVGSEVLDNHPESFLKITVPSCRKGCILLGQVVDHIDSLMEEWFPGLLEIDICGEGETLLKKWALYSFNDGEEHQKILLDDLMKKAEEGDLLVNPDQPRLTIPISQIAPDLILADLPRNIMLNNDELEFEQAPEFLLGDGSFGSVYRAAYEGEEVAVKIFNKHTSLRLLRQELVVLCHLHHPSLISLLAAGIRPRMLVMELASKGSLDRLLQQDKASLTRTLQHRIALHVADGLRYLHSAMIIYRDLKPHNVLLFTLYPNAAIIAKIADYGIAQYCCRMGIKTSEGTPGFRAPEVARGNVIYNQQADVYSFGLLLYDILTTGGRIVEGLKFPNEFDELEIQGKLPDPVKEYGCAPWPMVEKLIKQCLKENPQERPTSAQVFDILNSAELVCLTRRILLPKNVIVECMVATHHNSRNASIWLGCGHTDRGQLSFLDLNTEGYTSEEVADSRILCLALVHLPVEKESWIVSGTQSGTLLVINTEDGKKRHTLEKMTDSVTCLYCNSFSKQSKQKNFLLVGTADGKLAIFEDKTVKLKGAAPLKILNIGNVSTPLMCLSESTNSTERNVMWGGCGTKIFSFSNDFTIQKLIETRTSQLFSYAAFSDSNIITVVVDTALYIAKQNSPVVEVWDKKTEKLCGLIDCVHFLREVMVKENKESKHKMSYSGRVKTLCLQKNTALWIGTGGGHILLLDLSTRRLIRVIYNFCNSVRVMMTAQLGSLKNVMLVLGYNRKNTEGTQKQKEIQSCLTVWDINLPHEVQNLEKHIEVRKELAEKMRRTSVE

| Compound | IC50 |
| --- | --- |
| [2H]C1([2H])OCCn2cc(cn2)-c2n[nH]c3ccc(cc23)OC[C@H](C)OC1([2H])[2H] [Example 107, (12S)-12-methyl(9,9,10,10-^2H4)-8,11,14-trioxa-4,5,19,20-tetraazatetracyclo [13.5.2.1^2,5.0^18,21]tricosa-1(20),2(23),3,15,17,21-hexaene] | < 10 nM |
| c1cc2[nH]nc3c2cc1OCCCCCOCCn1cc-3cn1 [Example 108, 8,14-dioxa-4,5,19,20-tetraazatetracyclo[13.5.2.1^2,5.0^18,21]tricosa-1(20),2(23), 3,15(22),16,18(21)-hexaene] | < 10 nM |
| C[C@@H]1CCOCC(F)(F)COc2ccc3[nH]nc(c3c2)-c2cnn1c2 [Example 109, (6R)-11,11-difluoro-6-methyl-9,13-dioxa-4,5,18,19-tetraazatetracyclo [12.5.2.1^2,5.0^17,20]docosa-1(19),2(22),3,14(21),15,17(20)-hexaene] | < 100 nM |
| [2H]C1([2H])OCCO[C@@H](C)COc2ccc3[nH]nc(c3c2)-c2cnn(c2)C1([2H])[2H] [Example 110, (12S)-12-methyl(6,6,7,7-2H4)-8,11,14-trioxa-4,5,19,20-tetraazatetracyclo [13.5.2.1^2,5.0^18,21]tricosa-1(20),2(23),3,15(22),16,18(21)-hexaene] | < 10 nM |
| FC1(F)COCCCn2cc(cn2)-c2n[nH]c3ccc(cc23)OC1 [Example 111, 11,11-difluoro-9,13-dioxa-4,5,18,19-tetraazatetracyclo[12.5.2.1^2,5.0^17,20] docosa-1(19),2(22),3,14(21),15,17(20)-hexaene] | < 100 nM |
| C[C@H]1COc2ccc3[nH]nc(c3c2)-c2cnn(c2)CCCCCO1 [Example 112, (12S)-12-methyl-11,14-dioxa-4,5,19,20-tetraazatetracyclo[13.5.2.1^2,5.0^18,21] tricosa-1(20),2(23),3,15(22),16,18(21)-hexaene] | < 10 nM |
| C[C@H]1OCCOCCn2cc(cn2)-c2n[nH]c3ccc(cc23)O[C@@H]1C [Example 113, (12R,13R)-12,13-dimethyl-8,11,14-trioxa-4,5,19,20-tetraazatetracyclo [13.5.2.1^2,5.0^18,21]tricosa-1(20),2(23),3,15(22),16,18(21)-hexaene] | < 10 nM |
| C[C@@H]1OCCOCCn2cc(cn2)-c2n[nH]c3ccc(cc23)O[C@H]1C [Example 114, (12S,13S)-12,13-dimethyl-8,11,14-trioxa-4,5,19,20-tetraazatetracyclo [13.5.2.1^2,5.0^18,21]tricosa-1(20),2(23),3,15(22),16,18(21)-hexaene] | < 10 nM |
| c1cc2[nH]nc3c2cc1OCCCCOCCn1ncc-3n1 [Example 115, 8,13-dioxa-4,5,18,19,22-pentaazatetracyclo[12.5.2.1^2,5.0^17,20]docosa-1(19),2(22),3,14(21),15,17(20)-hexaene] | < 10 nM |
| C[C@@H]1CCO[C@@H](C)CCOc2ccc3[nH]nc(c3c2)-c2cnn1c2 [Example 116, (6R,10S)-6,10-dimethyl-9,13-dioxa-4,5,18,19-tetraazatetracyclo[12.5.2.1^2,5.0^17,20]docosa-1(19),2(22),3,14(21),15,17(20)-hexaene] | < 100 nM |
| C[C@@H]1C[C@@H](C)n2cc(cn2)-c2n[nH]c3ccc(cc23)OCCCO1 [Example 117, (6R,8R)-6,8-dimethyl-9,13-dioxa-4,5,18,19-tetraazatetracyclo[12.5.2.1^2,5.0^17,20] docosa-1(19),2(22),3,14(21),15,17(20)-hexaene] | < 100 nM |
| FC1(F)COCCCOc2ccc3[nH]nc(c3c2)-c2cnn(c2)C1 [Example 118, 7,7-difluoro-9,13-dioxa-4,5,18,19-tetraazatetracyclo[12.5.2.1^2,5.0^17,20] docosa-1(19),2(22),3,14(21),15,17(20)-hexaene] | < 10 nM |
| C[C@H]1COCCCOCc2nc(cn2C)-c2n[nH]c3ccc(cc23)O1 [Example 119, (13S)-4,13-dimethyl-7,11,14-trioxa-4,19,20,23-tetraazatetracyclo [13.5.2.1^2,5.0^18,21]tricosa-1(20),2,5(23),15(22),16,18(21)-hexaene] | < 1000 nM |
| C[C@@H]1CCOCC(F)(F)Cn2cc(cn2)-c2n[nH]c3ccc(cc23)O1 [Example 120, (12R)-7,7-difluoro-12-methyl-9,13-dioxa-4,5,18,19-tetraazatetracyclo [12.5.2.1^2,5.0^17,20]docosa-1(19),2(22),3,14(21),15,17(20)-hexaene] | < 10 nM |
| C1=C/COCCOc2ccc3[nH]nc(c3c2)-c2cnn(c2)CC/1 [Example 121, (8E)-11,14-dioxa-4,5,19,20-tetraazatetracyclo[13.5.2.1^2,5.0^18,21]tricosa-1(20),2(23),3,8,15(22),16,18(21)-heptaene] | < 10 nM |
| C[C@H]1CCCOCCn2ncc(n2)-c2n[nH]c3ccc(cc23)O1 [Example 122, (12S)-12-methyl-8,13-dioxa-4,5,18,19,22-pentaazatetracyclo[12.5.2.1^2,5.0^17,20]docosa-1(19),2(22),3,14(21),15,17(20)-hexaene] | < 10 nM |
| C[C@@H]1CCOc2ccc3[nH]nc(c3c2)-c2cnn(c2)[C@H](C)CCO1 [Example 123, (6R,10R)-6,10-dimethyl-9,13-dioxa-4,5,18,19-tetraazatetracyclo[12.5.2.1^2,5.0^17,20]docosa-1(19),2(22),3,14(21),15,17(20)-hexaene] | < 10 nM |

| Compound | IC50 |
| --- | --- |
| C[C@@H]1CCCOCCn2ncc(n2)-c2n[nH]c3ccc(cc23)O1 [Example 124, (12R)-12-methyl-8,13-dioxa-4,5,18,19,22-pentaazatetracyclo [12.5.2.1^2,5.0^17,20]docosa-1(19),2(22),3,14(21),15,17(20)-hexaene] | < 10 nM |
| C[C@@H]1CCOCCCc2ncn(n2)-c2n[nH]c3ccc(cc23)O1 [Example 125, (12R)-12-methyl-9,13-dioxa-2,4,18,19,22-pentaazatetracyclo[12.5.2.1^2,5.0^17,20]docosa-1(19),3,5(22),14(21),15,17(20)-hexaene] | < 10 nM |
| C[C@@H]1C[C@@H](C)Oc2ccc3[nH]nc(c3c2)-c2cnn(c2)CCCO1 [Example 126, (10R,12R)-10,12-dimethyl-9,13-dioxa-4,5,18,19-tetraazatetracyclo [12.5.2.1^2,5.0^17,20]docosa-1(19),2(22),3,14(21),15,17(20)-hexaene] | < 10 nM |
| C[C@@H]1CCn2ncc(n2)-c2n[nH]c3ccc(cc23)O[C@H](C)CCO1 [Example 127, (8R,12R)-8,12-dimethyl-9,13-dioxa-4,5,18,19,22-pentaazatetracyclo [12.5.2.1^2,5.0^17,20]docosa-1(19),2(22),3,14(21),15,17(20)-hexaene] | < 10 nM |
| C[C@@H]1CCCOC[C@@H](C)n2cc(cn2)-c2n[nH]c3ccc(cc23)O1 [Example 128, (6R,12R)-6,12-dimethyl-8,13-dioxa-4,5,18,19-tetraazatetracyclo[12.5.2.1^2,5.0^17,20]docosa-1(19),2(22),3,14(21),15,17(20)-hexaene] | < 10 nM |
| C[C@H]1COc2ccc3[nH]nc(c3c2)-c2cnn(c2)CCCOCCO1 [Example 129, (13S)-13-methyl-9,12,15-trioxa-4,5,20,21-tetraazatetracyclo[14.5.2.1^2,5.0^19,22]tetracosa-1(21),2(24),3,16(23),17,19(22)-hexaene] | < 100 nM |
| C[C@@H]1COCCCCn2ncc(n2)-c2n[nH]c3ccc(cc23)O1 [Example 130, (12R)-12-methyl-10,13-dioxa-4,5,18,19,22-pentaazatetracyclo[12.5.2.1^2,5.0^17,20] docosa-1(19),2(22),3,14(21),15,17(20)-hexaene] | < 100 nM |
| C[C@@H]1CCOCCOCCn2cc(cn2)-c2n[nH]c3ccc(cc23)O1 [Example 131, (14R)-14-methyl-8,11,15-trioxa-4,5,20,21-tetraazatetracyclo[14.5.2.1^2,5.0^19,22]tetracosa-1(21),2(24),3,16(23),17,19(22)-hexaene] | < 10 nM |
| C[C@@H]1C[C@H](C)OCCCOc2ccc3[nH]nc(c3c2)-c2cnn1c2 [Example 132, (6R,8S)-6,8-dimethyl-9,13-dioxa-4,5,18,19-tetraazatetracyclo[12.5.2.1^2,5.0^17,20]docosa-1(19),2(22),3,14(21),15,17(20)-hexaene] | < 100 nM |
| C[C@@H]1CCOCCOCCn2ncc(n2)-c2n[nH]c3ccc(cc23)O1 [Example 133, (14R)-14-methyl-8,11,15-trioxa-4,5,20,21,24-pentaazatetracyclo[14.5.2.1^2,5.0^19,22]tetracosa-1(21),2(24),3,16(23),17,19(22)-hexaene] | < 100 nM |
| O=C1COc2cccc(c2)-c2n[nH]c3ccc(cc23)OCCCN1 [Example 134, 7,14-dioxa-10,19,20-triazatetracyclo[13.5.2.1^2,6.0^18,21]tricosa-1(20),2(23), 3,5,15(22),16,18(21)-heptaen-9-one] | < 100 nM |
| c1cc2cc(c1)-c1n[nH]c3ccc(cc13)OCCCNCCO2 [Example 135, 7,14-dioxa-10,19,20-triazatetracyclo[13.5.2.1^2,6.0^18,21]tricosa-1(20),2(23),3,5,15(22),16,18(21)-heptaene] | < 10 nM |
| O=C1COc2cncc(c2)-c2n[nH]c3ccc(cc23)OCCCN1 [Example 136, 7,14-dioxa-4,10,19,20-tetraazatetracyclo[13.5.2.1^2,6.0^18,21]tricosa-1(20),2,4,6(23),15,17,21-heptaen-9-one] | < 10 nM |
| c1cc2[nH]nc3c2cc1OCCCNCCOc1cncc-3c1 [Example 137, 7,14-dioxa-4,10,19,20-tetraazatetracyclo[13.5.2.1^2,6.0^18,21]tricosa-1(20),2,4,6(23),15,17,21-heptaene] | < 10 nM |
| O=C1COc2cc(ccc2F)-c2n[nH]c3ccc(cc23)OCCCN1 [Example 138, 5-fluoro-7,14-dioxa-10,19,20-triazatetracyclo[13.5.2.1^2,6.0^18,21]tricosa-1(20),2,4,6(23),15,17,21-heptaen-9-one] | < 100 nM |
| Fc1ccc2cc1OCCNCCCOc1ccc3[nH]nc-2c3c1 [Example 139, 5-fluoro-7,14-dioxa-10,19,20-triazatetracyclo[13.5.2.1^2,6.0^18,21]tricosa-1(20),2,4,6(23),15,17,21-heptaene] | < 10 nM |
